Experimental data from the NIST ThermoML archive (doi:10.1021/je034087q).

Test: xn = mol fraction of the nth substance listed
Settings: Fluid (supercritical or subcritical phases)

CC(C)=O [acetone] + O=C=O
Settings | mass density [kg/m3]
326.65 K, 9200 kPa, x2 = 0.933 | 535
326.65 K, 9240 kPa, x2 = 0.933 | 540
326.65 K, 9270 kPa, x2 = 0.933 | 544
326.65 K, 9310 kPa, x2 = 0.933 | 549
326.65 K, 9340 kPa, x2 = 0.933 | 553
326.65 K, 9370 kPa, x2 = 0.933 | 559
326.65 K, 9410 kPa, x2 = 0.933 | 563
326.65 K, 9460 kPa, x2 = 0.933 | 569
326.65 K, 9500 kPa, x2 = 0.933 | 574
326.65 K, 9550 kPa, x2 = 0.933 | 579
326.65 K, 9600 kPa, x2 = 0.933 | 584
326.65 K, 9660 kPa, x2 = 0.933 | 590
326.65 K, 9710 kPa, x2 = 0.933 | 594
326.65 K, 9790 kPa, x2 = 0.933 | 601
326.65 K, 9850 kPa, x2 = 0.933 | 606
326.65 K, 9930 kPa, x2 = 0.933 | 612
326.65 K, 10010 kPa, x2 = 0.933 | 617
326.65 K, 10110 kPa, x2 = 0.933 | 625
326.65 K, 10210 kPa, x2 = 0.933 | 630
326.65 K, 10340 kPa, x2 = 0.933 | 637
326.65 K, 10470 kPa, x2 = 0.933 | 643
326.65 K, 10590 kPa, x2 = 0.933 | 650
326.65 K, 10750 kPa, x2 = 0.933 | 656
326.65 K, 10920 kPa, x2 = 0.933 | 663
326.65 K, 11100 kPa, x2 = 0.933 | 670
326.65 K, 11320 kPa, x2 = 0.933 | 677
326.65 K, 11540 kPa, x2 = 0.933 | 684
326.65 K, 11800 kPa, x2 = 0.933 | 691
326.65 K, 12060 kPa, x2 = 0.933 | 699
326.65 K, 12380 kPa, x2 = 0.933 | 708
326.65 K, 12730 kPa, x2 = 0.933 | 715
326.65 K, 13140 kPa, x2 = 0.933 | 723
326.65 K, 13580 kPa, x2 = 0.933 | 731
326.65 K, 14060 kPa, x2 = 0.933 | 741
326.65 K, 14600 kPa, x2 = 0.933 | 749
328.15 K, 9370 kPa, x2 = 0.902 | 632
328.15 K, 9490 kPa, x2 = 0.902 | 640
328.15 K, 9620 kPa, x2 = 0.902 | 645
328.15 K, 9720 kPa, x2 = 0.902 | 650
328.15 K, 9780 kPa, x2 = 0.902 | 654
328.15 K, 9910 kPa, x2 = 0.902 | 657
328.15 K, 10020 kPa, x2 = 0.902 | 662
328.15 K, 10150 kPa, x2 = 0.902 | 669
328.15 K, 10330 kPa, x2 = 0.902 | 673
328.15 K, 10480 kPa, x2 = 0.902 | 679
328.15 K, 10610 kPa, x2 = 0.902 | 684
328.15 K, 10820 kPa, x2 = 0.902 | 688
328.15 K, 11020 kPa, x2 = 0.902 | 695
328.15 K, 11200 kPa, x2 = 0.902 | 700
328.15 K, 11440 kPa, x2 = 0.902 | 705
328.15 K, 11720 kPa, x2 = 0.902 | 711
328.15 K, 11920 kPa, x2 = 0.902 | 716
328.15 K, 12230 kPa, x2 = 0.902 | 721
328.15 K, 12460 kPa, x2 = 0.902 | 727
328.15 K, 12780 kPa, x2 = 0.902 | 733
